# Earlier results in patent US20180355410A1, “DIAGNOSIS AND TREATMENT OF INFECTIOUS DISEASE” (Cambridge Enterprise Limited, priority 2015, published 2018).
# Test system: Neisseria gonorrhoeae
# Conditions: EUCAST clinical breakpoint valid from 1st January 2015
smiles,measurement,value
CC[C@H]1OC(=O)[C@H](C)[C@@H](O[C@H]2C[C@@](C)(OC)[C@@H](O)[C@H](C)O2)[C@H](C)[C@@H](O[C@@H]2O[C@H](C)C[C@H](N(C)C)[C@H]2O)[C@](C)(O)C[C@@H](C)CN(C)[C@H](C)[C@@H](O)[C@]1(C)O [Azithromycin],MIC R-breakpoint (resistant),> 0.5 µg/mL
same,MIC S-breakpoint (susceptible),≤ 0.25 µg/mL
